Tests used:
[1] = tested on: Conyza canadiensis (ERICA); assay: Greenhouse post-emergence weed control, percent injury vs untreated control; type: in vivo; details: 504 h
Protocol: (§1) Glufosinate was used as a commercial SL formulation containing 280 g ai/l of glufosinate (Liberty 280 SL, BASF). While the PPO herbicide Cadet containing 109 g ai/l fluthiacet-methyl was used (Cadet, FMC) formulation. • The evaluation for plant injury or damage caused by the chemical compositions was carried out using a scale from 0-100% when compared with the untreated control plants. Here, 0 means no damage and 100 means complete destruction of the plants.
(§2) 22., E=X+Y−(X*Y/100), where • X=effect in percent using herbicide A at an application rate of a; • Y=effect in percent using herbicide B at an application rate of b; • E=expected effect (in %) of A+B at application rates a+b.
(§3) The value E corresponds to the effect (plant damage or injury) which is to be expected if the activity of the individual compounds is just additive. If the observed effect is higher than the value E calculated according to Colby, a synergistic effect is present.
(§4) Seedlings of marestail (Conyza canadiensis; ERICA) and barnyardgrass (Echinochloa crusgalli; ECHCG) were treated with postemergence applications of either glufosinate at 246 g ai/ha, fluthiacet-methyl at 0.72 g ai/ha, or the combination of glufosinate (246 g ai/ha) and fluthiacet-methyl (0.72 g ai/ha), respectively, when they were 5-10 cm in height. All glufosinate treatments contained 1% (w/v) ammonium sulfate and solo fluthiacet-methyl treatments contained 1% (w/v) ammonium sulfate plus 1% (v/v) MSO surfactant. Plants were placed in a completely randomized design with four replications per treatment. Percent injury data was collected 21 days after treatment (DAT).

[2] = tested on: Echinochloa crus-galli (ECHCG); assay: as above; type: in vivo; details: 504 h
Protocol: as §1, §2, §3, §4

[3] = read-out: % activity, Solo Glufosinate (246 g ai/ha)

SMILES: COC(=O)CSc1cc(/N=c2\sc(=O)n3n2CCCC3)c(F)cc1Cl [Fluthiacet-methyl, fluthiacet-methyl]
- inhibition at 0.72 g/ha ([1]; ERICA seedlings 5-10 cm, postemergence, 0.72 g ai/ha, 21 DAT, 1% ammonium sulfate plus 1% MSO, scale 0-100%, read-out: % activity, Solo Fluthiacet-methyl (0.72 g ai/ha)): 23%
- inhibition at 0.72 g/ha ([2]; ECHCG seedlings 5-10 cm, postemergence, 0.72 g ai/ha, 21 DAT, 1% ammonium sulfate plus 1% MSO, scale 0-100%, read-out: % activity, Solo Fluthiacet-methyl (0.72 g ai/ha)): 20%

SMILES: CP(=O)(O)CCC(N)C(=O)O (racemic) [Glufosinate, (2RS)-2-amino-4-[hydroxy(methyl)phosphinoyl]butyric acid]
- inhibition at 246 g/ha [1, 3]: 58%
- inhibition at 246 g/ha [2, 3]: 53%

Source: US20230089506A1, “Herbicide Combinations Comprising Glufosinate and Fluthiacet-Methyl” (BASF SE, priority 2020, published 2023)
